Patent US4616007A, “Heterocyclthio compounds, process for their manufacture, pharmaceutical preparations that contain these compounds, and the use of the latter” (Ciba-Geigy Corporation, priority 1982, dated 1986)

Columns and labels:
[1] = test system: Klebsiella pneumoniae 327; assay: in vitro antibacterial activity (MIC); assay type: cell-based
[2] = test system: Streptococcus faecalis D 3; assay: in vitro antibacterial activity (MIC); assay type: cell-based; details: Enterococcus faecalis, D3
[3] = test system: Staphylococcus aureus 10 B; assay: in vitro antibacterial activity (MIC); assay type: cell-based
[4] = test system: Pseudomonas aeruginosa K 799/61; assay: in vitro antibacterial activity (MIC); assay type: cell-based; details: K799/61
[5] = test system: Escherichia coli 205 R+TEM; assay: in vitro antibacterial activity (MIC); assay type: cell-based
[6] = test system: Streptococcus pyogenes Aronson; assay: in vitro antibacterial activity (MIC); assay type: cell-based
[7] = test system: Proteus mirabilis 774; assay: in vitro antibacterial activity (MIC); assay type: cell-based
[8] = test system: Proteus mirabilis 1219; assay: in vitro antibacterial activity (MIC); assay type: cell-based
[9] = test system: Proteus rettgeri 856; assay: in vitro antibacterial activity (MIC); assay type: cell-based; details: Providencia rettgeri
[10] = test system: Enterobacter cloacae P 99; assay: in vitro antibacterial activity (MIC); assay type: cell-based; details: P99
[11] = test system: Streptococcus pneumoniae III/84; assay: in vitro antibacterial activity (MIC); assay type: cell-based
[12] = test system: Haemophilus influenzae NCTC 4560; assay: in vitro antibacterial activity (MIC); assay type: cell-based; details: NCTC4560
[13] = test system: Neisseria meningitidis 1316; assay: in vitro antibacterial activity (MIC); assay type: cell-based
[14] = test system: Enterobacter cloacae ATCC 13047; assay: in vitro antibacterial activity (MIC); assay type: cell-based; details: ATCC13047
[15] = test system: Staphylococcus aureus 2999i+p+; assay: in vitro antibacterial activity (MIC); assay type: cell-based
[16] = test system: Pseudomonas aeruginosa ATCC 12055; assay: in vitro antibacterial activity (MIC); assay type: cell-based; details: ATCC12055
[17] = test system: Streptococcus pyogenes Aronson; assay: in vivo systemic infection of mice
Excerpt: (§1) The compounds of the formula I have valuable pharmacological properties, or can be used as intermediates for the manufacture of such compounds having valuable pharmacological properties. Compounds of the formula I in which R1 represents hydrogen or methyl, R2 represents hydroxy, R3 represents carboxy, or an esterified carboxy group that can be cleaved under physiological conditions, and R4 has the meaning given under formula I, and pharmacologically acceptable salts of such compounds having salt-forming groups have anti-bacterial activity. For example, they are effective in vitro against gram-positive and gram-negative cocci, for example Staphylococcus aureus, Streptococcus pyogenes, Streptococcus pneumoniae, and Streptococcus faecalis, and against gram-negative rod-shaped bacilli, such as Enterobacteriaceae, Haemophilus influenzae and Pseudomonas aeruginosa, and anaerobes, for example Bacteroides sp., in minimum concentrations of from approximately 0.02 to approximately 64 μg/ml. In vivo, in the case of systemic infection of mice, for example by Staphylococcus aureus or Streptococcus pyogenes, on subcutaneous or oral administration of compounds of the invention ED50 values of from approximately 8.5 to approximately 100 mg/kg result.
(§2) In vivo in the systemic infection of mice, the following activity is found: […]

[18] = test system: Serratia marcescens 344; assay: in vitro antibacterial activity (MIC); assay type: cell-based
[19] = test system: Neisseria gonorrhoeae 1317-4; assay: in vitro antibacterial activity (MIC); assay type: cell-based; details: 13174
[20] = test system: Clostridium perfringens 194; assay: microbe, parasite or virus in culture; assay type: cell-based
[21] = test system: Staphylococcus aureus Wood 46; assay: in vitro antibacterial activity (MIC); assay type: cell-based; details: WOOD46
Excerpt: as §1
(§3) For example, in vitro, sodium (5R,6S)-2-[3-(1-methyltetrazol-5-ylthio)-propyl]-6-hydroxymethyl-2-penem-3-carboxylate (compound 1) and sodium (5R,6S)-2-[3-(1-dimethylaminoethyltetrazol-5-ylthio)-propyl]-6-hydroxymethyl-2-penem-3-carboxylate (compound 2) and sodium (5R,6S)-2-[3-(1-methyltetrazol-5-ylthio)-ethyl-6-hydroxymethyl-2-penem-3-carboxylate (compound 3), have the following activity: […]

[22] = test system: Escherichia coli 2018; assay: in vitro antibacterial activity (MIC); assay type: cell-based
Excerpt: as §1, §3

[23] = test system: Staphylococcus aureus A 124; assay: in vitro antibacterial activity (MIC); assay type: cell-based; details: A124
Excerpt: as §1, §3

[24] = test system: Escherichia coli DC 2; assay: in vitro antibacterial activity (MIC); assay type: cell-based; details: DC2
Excerpt: as §1, §3

[25] = test system: Escherichia coli B-1385; assay: in vitro antibacterial activity (MIC); assay type: cell-based; details: B1385
Excerpt: as §1, §3

[26] = test system: Escherichia coli UB 1005; assay: in vitro antibacterial activity (MIC); assay type: cell-based; details: UB1005
Excerpt: as §1, §3

[27] = test system: Escherichia coli 16; assay: in vitro antibacterial activity (MIC); assay type: cell-based
[28] = test system: Proteus morganii 2359; assay: in vitro antibacterial activity (MIC); assay type: cell-based; details: Morganella morganii
[29] = test system: Escherichia coli 205; assay: in vitro antibacterial activity (MIC); assay type: cell-based
[30] = test system: Bacteroides fragilis L 01; assay: in vitro antibacterial activity (MIC); assay type: cell-based; details: L01
[31] = test system: Proteus morganii 1518; assay: in vitro antibacterial activity (MIC); assay type: cell-based; details: Morganella morganii
[32] = test system: Staphylococcus aureus 10 B; assay: in vivo systemic infection of mice
Excerpt: as §1, §2

[33] = test system: Escherichia coli 2018; assay: in vivo systemic infection of mice
Excerpt: as §1, §2

| Compound | MIC [1] [µg/mL] | MIC [2] [µg/mL] | MIC [3] [µg/mL] | MIC [4] [µg/mL] | MIC [5] [µg/mL] | MIC [6] [µg/mL] | MIC [7] [µg/mL] | MIC [8] [µg/mL] | MIC [9] [µg/mL] | MIC [10] [µg/mL] | MIC [11] [µg/mL] | MIC [12] [µg/mL] | MIC [14] [µg/mL] | MIC [15] [µg/mL] | MIC [16] [µg/mL] | ED50 ([17]; po) [mg/kg] | ED50 ([17]; sc) [mg/kg] | MIC [18] [µg/mL] | MIC [20] [µg/mL] | MIC [24] [µg/mL] | further results |
| --- | --- | --- | --- | --- | --- | --- | --- | --- | --- | --- | --- | --- | --- | --- | --- | --- | --- | --- | --- | --- | --- |
| Cn1nnnc1SCCC1=C(C(=O)[O-])N2C(=O)[C@H](CO)[C@H]2S1.[Na+] [Compound 3, Sodium (5R,6S)-2-[2-(1-Methyltetrazol-5-ylthio)-ethyl]-6-hydroxymethyl-2-penem-3-carboxylate] | 2 | 32 | 0.05 | 1 | 2 | 0.1 | 2 | 4 | 4 | 16 | 0.02 | 2 | 32 | 0.05 | > 128 | 30 | 12 | 16 | 0.1 | 2 | MIC [13]: 0.02 µg/mL; MIC [19]: 0.01 µg/mL; MIC [21]: 0.05 µg/mL; MIC [22]: 0.5 µg/mL; MIC [23]: 0.5 µg/mL; MIC [25]: 2 µg/mL; MIC [26]: 2 µg/mL; MIC [27]: 4 µg/mL; MIC [28]: 2 µg/mL; MIC [29]: 1 µg/mL; MIC [30]: 0.2 µg/mL; MIC [31]: 4 µg/mL |
| Cn1nnnc1SCCCC1=C(C(=O)[O-])N2C(=O)[C@H](CO)[C@H]2S1.[Na+] [Compound 1, sodium (5R,6S)-2-[3-(1-methyltetrazol-5-ylthio)-propyl]-6-hydroxymethyl-2-penem-3-carboxylate] | 4 | 64 | 0.05 | 2 | 4 | 0.1 | 2 | 8 | 4 | 32 | 0.02 | 0.5 | 64 | 0.05 | > 128 | ~30 | 8.5 | 16 | 0.02 | 2 | ED50 ([32]; po): 90 mg/kg; ED50 ([32]; sc): 60 mg/kg; ED50 ([33]; Escherichia coli, 2018, po, p.o.): 90 mg/kg; ED50 ([33]; Escherichia coli, 2018, sc, s.c.): 30 to 100 mg/kg; MIC [26]: 4 µg/mL; MIC [27]: 16 µg/mL; MIC [28]: 2 µg/mL; MIC [29]: 2 µg/mL; MIC [30]: 0.5 µg/mL; MIC [31]: 4 µg/mL |
